Columns and labels:
[1] = tested on: stage II and III colorectal cancers; assay: Survival of stage II and III colorectal cancer patients treated by surgery alone or surgery plus standard 5FU chemotherapy, by hMLH1 methylation; assay type: in vivo, human
Source text: The predictive value of hMLH1 methylation for survival benefit with 5FU chemotherapy was examined in a series of stage II and III colorectal cancers that had been treated by surgery alone (no chemotherapy) or by surgery plus standard 5FU chemotherapy.
The following primers were used to detect methylated hMLH1 following bisulfite conversion (utilising the MSP technique): […]

stage III CRC patients = assay: Survival of stage III CRC patients treated by surgery alone or by surgery and 5-FU/leucovorin (matched cohorts), by CIMP status; assay type: in vivo, human
Source text: A total of 891 stage III CRC cases were diagnosed at the Sir Charles Gairdner Hospital between 1985 and 1999 (14). This spans the time period during which 5-FU-based adjuvant chemotherapy was being introduced in Western Australia for the management of stage III CRC. Adjuvant chemotherapy was given to 270 (30%) patients according to the standard Mayo regimen (5-FU/leucovorin). This comprised at least two cycles of chemotherapy, and for the majority of patients the full six cycles were completed. Patients were separated into categories based on 5-year age intervals, gender, and site of tumor origin. […] Within these groups, adjuvant-treated and nontreated patients were pair-matched at random. A total cohort of 125 matched pairs was selected for DNA methylation analysis. […] All cases were diagnosed at a single pathology laboratory (Hospital and University Pathology Service/Pathcenter) associated with the Sir Charles Gairdner Hospital. This laboratory maintained relatively constant reporting practices during the 1985-1999 study period. Five cases were classified as T4 lesions, and all others were classified as T3. The study included 48 rectal, 24 sigmoid, 24 descending colon, 17 transverse colon, 47 ascending colon, and 46 cecal tumors. Four patients with rectal cancer received post-operative radiotherapy. Disease-specific survival information was obtained on all 206 patients by examination of hospital and West Australian Health Department records. The median follow-up time was 39 months (range, 1-172 months), with 119 patients (58%) dying as a result of recurrent disease by the end of the study. Survival data for 19 (9%) patients who died from other causes were censored at the time of death. It has been estimated that net migration out of the state of Western Australia is 0.4% per year, equating to approximately 1 case/year of the 206 cases investi-gated in this series. However, this rate is expected to be considerably lower for older individuals and particularly for those diagnosed with cancer. The Sir Charles Gairdner Hospital Human Research Ethics Committee gave approval for this study.
Methylation-specific PCR was used to determine the methylation status of CpG islands located within the p16 promoter (4, 5, 10, 17), the MINT-2 clone (3, 4), and the MDR1 promoter (4, 9). DNA amplification of all three CpG loci was successful for 103 matched pairs, equating to an overall success rate of approximately 90%. CIMP+ was arbitrarily defined as the presence of two or more of these sites showing methylation. Of the 206 tumors successfully analyzed in this study for CIMP+ status, the majority (83%) were sourced from formalin-fixed and paraffin-embedded archival tissue blocks. The remaining cases were in the form of unfixed tissue samples taken shortly after surgical resection and stored frozen at −80° C.
Multivariate Cox proportional hazard test with matched-pair stratification and Kaplan-Meier analyses were used to evaluate differences in survival between patient groups. Regression sensitivity was determined by analyzing the effect of unmeasured binary confounders as described by Lin et al. (20) Statistical analyses were performed using the Stata 7.0 (College Station, Tex.) software package. All Ps are two-sided.

## O=c1[nH]cc(F)c(=O)[nH]1 [5-FU, 5-fluorouracil]
[1]; hMLH1 methylated, chemotherapy (10/10), P = 0.097 vs no chemotherapy
  survival of patient group: 10/10 (100%) P = 0.097
[1]; hMLH1 non-methylated, chemotherapy (15/22), P = NS vs no chemotherapy
  survival of patient group: 15/22 (68%) P = NS
[1]; patients with methylated hMLH1 gene, chemotherapy vs no chemotherapy (FIG. 3C)
  impact of chemotherapy on overall survival: positive impact
Stage III CRC patients; CIMP+, multivariate analysis for matched pairs, independent of MSI+ and p53 status, 95% CI 0.06-0.84, P=0.027
  RR (relative risk), predictive value of CIMP+ for survival benefit: 0.22
Stage III CRC patients; CIMP- patients
  long-term survival benefit from 5-FU treatment: no long-term survival benefit
Stage III CRC patients; CIMP- patients, 95% CI 0.62-1.49, P=0.86
  RR (relative risk), survival benefit from 5-FU: 0.96
Stage III CRC patients; all stage III CRC patients, surgery + 5-FU vs surgery alone, 95% CI 0.43-0.90, P=0.012
  RR (relative risk), survival benefit associated with the use of 5-FU: 0.62
Stage III CRC patients; cohort treated with surgery plus 5-FU
  survival of CIMP+ patients compared to CIMP-: trend for better survival
Stage III CRC patients; patients with CIMP+ tumors
  patients who died from recurrent CRC despite the use of 5-FU: approximately 40%
